Measured values as given in patent US20070128217A1 (priority 2003, published 2007).

How the values were obtained:
[1] = test system: antibodies in sera from SARS patients (sera 1a, 1b, 2, 6, 37, 62, London, SARS-yellow, SARS-green); assay type: binding, human; design: Binding of serum 6 to linear peptides of protein X1 of SARS-CoV Urbani / Binding of serum 37 to linear peptides of protein X1 of SARS-CoV Urbani / Binding of serum 6 to looped/cyclic peptide (PEPSCAN-ELISA) / Binding of serum 37 to looped/cyclic peptide (PEPSCAN-ELISA) / Binding of serum 37 to looped/cyclic peptides of protein X1 of SARS-CoV Urbani / Binding of serum 6 to linear peptides of protein X2 / Binding of serum 37 to linear peptides of protein X2 / Binding of serum 37 to looped/cyclic peptides of protein X2 of SARS-CoV Urbani / Binding of serum 6 to linear peptides of protein M of SARS-CoV Urbani / Binding of serum 37 to linear peptides of protein M of SARS-CoV Urbani / Binding of serum 6 to looped/cyclic peptides of protein M of SARS-CoV Urbani / Binding of serum 37 to looped/cyclic peptides of protein M of SARS-CoV Urbani / Binding of serum 6 to linear peptides of protein X3 of SARS-CoV Urbani / Binding of serum 37 to linear peptides of protein X3 of SARS-CoV Urbani / Binding of serum 37 to looped/cyclic peptides of protein X3 of SARS-CoV Urbani / Binding of serum 6 to linear peptides of protein X4 of SARS-CoV Urbani / Binding of serum 37 to linear peptides of protein X4 of SARS-CoV Urbani / Binding of serum 37 to looped/cyclic peptides of protein X4 of SARS-CoV Urbani / Binding of serum 6 to linear peptides of protein X5 of SARS-CoV Urbani / Binding of serum 37 to linear peptides of protein X5 of SARS-CoV Urbani / Binding of serum 37 to looped/cyclic peptides of protein X5 of SARS-CoV Urbani / Binding of serum 6 to linear peptides of protein N of SARS-CoV Urbani / Binding of serum 37 to linear peptides of protein N of SARS-CoV Urbani / Binding of serum 6 to linear peptide (PEPSCAN-ELISA) / Binding of serum 1a to looped/cyclic peptides of protein N of SARS-CoV Urbani / Binding of serum 1b to looped/cyclic peptides of protein N of SARS-CoV Urbani / Binding of serum 2 to looped/cyclic peptides of protein N of SARS-CoV Urbani / Binding of serum 6 to looped/cyclic peptides of protein N of SARS-CoV Urbani / Binding of serum 37 to looped/cyclic peptides of protein N of SARS-CoV Urbani / Binding of serum 62 to looped/cyclic peptides of protein N of SARS-CoV Urbani / Binding of serum London to looped/cyclic peptides of protein N of SARS-CoV Urbani / Binding of serum SARS-green to looped/cyclic peptides of protein N of SARS-CoV Urbani: unit not given here
[2] = test system: control sera (pooled serum of ten healthy LUMC hospital workers; commercial negative donor pooled serum from the Dutch bloodbank); assay type: binding, human; design: Binding of Control serum LUMC to linear peptides / Binding of Control serum Blood-bank to linear peptides / Binding of Control serum LUMC to looped peptides / Binding of Control Serum Blood-Bank to Looped peptides / Binding of Control serum LUMC to linear peptides of the protein M of SARS-CoV Urbani / Binding of Control serum Blood-bank to linear peptides of the protein M of SARS-CoV Urbani / Binding of Control serum LUMC to looped peptides of the protein M of SARS-CoV Urbani / Binding of Control Serum Blood-Bank to Looped peptides of the protein M of SARS-CoV Urbani: unit not given here
[3] = test system: rabbit serum obtained by immunizing a rabbit with the SARS-CoV strain Frankfurt 1; assay type: binding; design: Binding of a rabbit serum to linear peptides / Binding of a rabbit serum to looped peptides / Rabbit serum linear peptides / Rabbit serum looped peptides / Binding of a rabbit serum to linear peptides of protein N of SARS-CoV Urbani (Rabbit serum linear peptides) / Binding of a rabbit serum to looped/cyclic peptides of protein N of SARS-CoV Urbani (Rabbit serum looped peptides): unit not given here
[4] = test system: recombinant human anti-SARS-CoV antibody 03-018; assay type: binding; design: Binding of antibody 03-018 to linear peptides of the N protein of SARS-CoV Urbani / Binding of antibody 03-018 to looped/cyclic peptides of the N protein of SARS-CoV Urbani: unit not given here

Sequence	Binding of serum 1a to linear peptide (PEPSCAN-ELISA) [1]	Binding of serum 1a to looped/cyclic peptides of protein N of SARS-CoV Urbani [1]	Binding of serum 1b to linear peptide (PEPSCAN-ELISA) [1]	Binding of serum 1b to looped/cyclic peptides of protein N of SARS-CoV Urbani [1]	Binding of serum 2 to linear peptide (PEPSCAN-ELISA) [1]	Binding of serum 2 to looped/cyclic peptides of protein N of SARS-CoV Urbani [1]	Binding of serum 6 to looped/cyclic peptides of protein N of SARS-CoV Urbani [1]	Binding of serum 37 to looped/cyclic peptides of protein N of SARS-CoV Urbani [1]	Binding of serum 62 to looped/cyclic peptides of protein N of SARS-CoV Urbani [1]	Binding of serum London to looped/cyclic peptides of protein N of SARS-CoV Urbani [1]	Binding of serum SARS-green to looped/cyclic peptides of protein N of SARS-CoV Urbani [1]	Binding of serum SARS-yellow to looped/cyclic peptides of protein N of SARS-CoV Urbani [1]	Binding of Control Serum Blood-Bank to Looped peptides [2]	Binding of Control serum Blood-bank to linear peptides [2]	Binding of Control serum LUMC to linear peptides [2]	Binding of Control serum LUMC to looped peptides [2]	Binding of a rabbit serum to linear peptides of protein N of SARS-CoV Urbani (Rabbit serum linear peptides) [3]	Binding of a rabbit serum to looped/cyclic peptides of protein N of SARS-CoV Urbani (Rabbit serum looped peptides) [3]	Binding of antibody 03-018 to linear peptides of the N protein of SARS-CoV Urbani [4]	Binding of antibody 03-018 to looped/cyclic peptides of the N protein of SARS-CoV Urbani [4]	also measured
GQQQQGQTVTKKSAA	0.3	0.2	0.1	0.1	0.3	0.3	0.1	0.4	0.4	0.3	0.1	0.1	0.5	0.9	0.9	0.5	0.2	0.1	0.1	0.2	Binding of serum 6 to linear peptide (PEPSCAN-ELISA) [1]: 0.3; Binding of serum 37 to linear peptide (PEPSCAN-ELISA) [1]: 0.8; Binding of serum 62 to linear peptide (PEPSCAN-ELISA) [1]: 0.8; Binding of serum London to linear peptide (PEPSCAN-ELISA) [1]: 0.5; Binding of serum SARS-green to linear peptide (PEPSCAN-ELISA) [1]: 0.1; Binding of serum SARS-yellow to linear peptide (PEPSCAN-ELISA) [1]: 0.5
GQTVTKKSAAEASKK	–	0.2	–	0.1	–	0.2	0.1	0.4	0.2	0.3	0.0	0.2	0.4	0.7	0.7	0.3	0.2	0.2	0.1	0.2	Recognition of the peptide by sera of SARS-CoV infected individuals, and form (linear, looped/cyclic) in which it is recognized [1]: recognized in linear form
GSQASSRSSSRSRGN	0.3	0.4	0.1	0.2	0.4	0.4	0.3	0.7	0.6	0.5	0.1	0.5	0.6	0.8	0.8	0.6	0.2	0.7	0.1	0.2	Binding of serum 6 to linear peptide (PEPSCAN-ELISA) [1]: 0.4; Binding of serum 37 to linear peptide (PEPSCAN-ELISA) [1]: 0.7; Binding of serum 62 to linear peptide (PEPSCAN-ELISA) [1]: 0.6; Binding of serum London to linear peptide (PEPSCAN-ELISA) [1]: 0.6; Binding of serum SARS-green to linear peptide (PEPSCAN-ELISA) [1]: 0.3; Binding of serum SARS-yellow to linear peptide (PEPSCAN-ELISA) [1]: 0.7
GTWLTYHGAIKLDDK	–	0.2	–	0.1	–	0.2	0.1	0.4	0.3	0.3	0.1	0.5	–	–	–	–	0.1	0.2	0.1	0.2	Binding of serum 1a to linear peptides of protein N of SARS-CoV Urbani [1]: 0.2; Binding of serum 1b to linear peptides of protein N of SARS-CoV Urbani [1]: 0.1; Binding of serum 2 to linear peptides of protein N of SARS-CoV Urbani [1]: 0.2; Binding of serum 6 to linear peptides of protein N of SARS-CoV Urbani [1]: 0.1; Binding of serum 37 to linear peptides of protein N of SARS-CoV Urbani [1]: 0.7; Binding of serum 62 to linear peptides of protein N of SARS-CoV Urbani [1]: 0.7; Binding of serum London to linear peptides of protein N of SARS-CoV Urbani [1]: 0.5; Binding of serum SARS-green to linear peptides of protein N of SARS-CoV Urbani [1]: 0.4; Binding of serum SARS-yellow to linear peptides of protein N of SARS-CoV Urbani [1]: 0.7; Control Serum Blood-Bank Looped peptides [2]: 0.4; Control serum Blood-bank linear peptides [2]: 0.6; Control serum LUMC linear peptides [2]: 0.6; Control serum LUMC looped peptides [2]: 0.4
